Assay results as given in publication PMC10447463, “Data-mining unveils structure–property–activity correlation of viral infectivity enhancing self-assembling peptides” (Nature Communications, 2023).
Read-outs that look alike come from different tables or passages of the source.

Experiments:
[1] = β-sheet content by ATR-FT-IR; format: physicochemical; details: Fig. S7 panel A; β-sheet content by ATR-FT-IR
Summary of the method: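 In the conversion assay, unconverted peptide passing a 3 kDa membrane at 4 °C was labelled with fluorescamine alongside unfiltered PNF, both in DMSO, and read at 365/470 nm after 20 min at room temperature. β-sheet content relied on ATR FT-IR of lyophilized fibril powder.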

[2] = test system: HIV-1 infection of TZM-bl cells; experiment: HIV-1 infectivity enhancement assay, β-galactosidase luminescence; format: cell-based; details: for Rel-EFC / Log10 Infection Rel EFC: 1.3 µM peptide; for Rel-EFC: infection relative to EF-C (QCKIKQIINMWQ = 1); for Log10 Infection Rel EFC: log10 of infection relative to EF-C; for Log Infectivity: Log10 infection relative to EF-C, TZM-bl cells, asymmetric std dev errors; for Log10 Infection Rel EF-C: HIV-1 infection of TZM-bl cells; for Abs. Inf.: absolute infection signal, HIV-1 on TZM-bl cells, β-galactosidase luminescence; for Log10 Inf. rel. to EF-C: log10 of HIV-1 infection of TZM-bl cells relative to EF-C (EF-C = 0)
[3] = Zeta-potential measurement; format: physicochemical
Summary of the method: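 Readout: zeta potential (mV) derived by Smoluchowski from measured electrophoretic mobility. Preformed aggregates (1 mg/mL peptide, PBS pH 7.4, RT for 1 d) were diluted into dilute KCl electrolyte (1 mM) shortly before analysis.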

[4] = Turbidity, derived count rate of scattered light; format: physicochemical; details: for Count Rate / kcps: derived count rate of scattered light at 633 nm, 173°, from zeta-potential measurement, 0.1 mg/mL in 1 mM KCl after 1 d at 1 mg/mL in PBS, turbidity / microscopic aggregation, mean of triplicate
Summary of the method: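 Samples: 1 mg/mL in PBS pH 7.4 (from DMSO), 1 d at RT, then diluted in 1 mM KCl immediately before measurement. Triplicates, two independent runs averaged.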

[5] = Fig. S7 panel A (plotted against β-sheet content)
[6] = Log10 of infection rate relative to EF-C, Figure 3A source data
[7] = infection rate relative to EF-C, log10, data of Figure 2D
[8] = infection rate relative to EF-C, log10, source data of Figure 2C
[9] = zeta potential of peptide assemblies
[10] = zeta-potential of peptide, source data of Figure 2C
[11] = zeta-potential of the peptide assemblies, mean, Figure 3A source data
[12] = Log10 of derived count rate of scattered light (turbidity)
[13] = log10 of derived count rate of scattered light (turbidity)
[14] = turbidity, Log10 of derived count rate of scattered light, Figure 3A source data
[15] = turbidity, log10 of derived count rate of scattered light

Substance	b -sheet / % [1] [%]	Rel-EFC [2]	Log10 Infection Rel EFC [2]	Log Infectivity [2, 5]	Log10 Infection Rel EF-C [2, 6]	Log10 Infection Rel EF-C [2, 7]	Log10 Infection Rel EF-C [2, 8]	Zeta-Pot. [3, 9]	Zeta-Potential / mV [3, 10] [mV]	Zeta-Potential / mV [3, 11] [mV]	Log10 Count Rate [4, 12]	Count Rate / kcps [4] [kcps]	Log10 Count Rate [4, 13]	Log10 Count Rate [4, 14]	Abs. Inf. [2]	Log10 Inf. rel. to EF-C [2]	Zeta-Pot. [3]	Log10 Count Rate [4, 15]	Log10 of Rel to EFC (Feb2021) ([2]; Log10 of infection relative to EF-C, all peptides of FigS16)	Log Infectivity ([2]; Fig. S7 panel B (plotted against CR), rounded to two decimals)
KYKYQY	0	0,01	-1,99	-1.9887	-1.99	-1.9887	-1.9887	-4.2	-3.008	-4.2	1.499	32	1.499	1.499	–	–	–	–	–	–
QCKIKQII	40.51	0,01	-2,19	-2.189	-2.19	-2.189	-2.189	–	9.183	11	2.479	301	–	2.479	206.7	-2.189	11	2.479	–	–
KNDKND	43.2531	0,01	-1,98	-1.978	-1.98	-1.978	-1.978	–	-11.85	-15	1.719	52	–	1.719	230	-1.978	-15	1.719	–	–
NMWQKVGTPL	32.26	0,02	-1,61	-1.607	-1.61	-1.607	-1.607	–	-5.334	-9.62	1.431	27	–	1.431	276.7	-1.607	-9.62	1.431	–	–
CKYKYQY	49.12	0,04	-1,39	-1.3903	-1.39	-1.3903	-1.3903	1.49	3.282	1.49	3.026	1061	3.026	3.026	–	–	–	–	–	–
KIKIQINMW	45.5	2,16	0,33	0.3339	0.33	0.3339	0.3339	19.7	17.12	19.7	2.38	240	–	2.38	–	0.3339	–	2.38	0.33	–
MKFKFQF	21.97	0,06	-1,2	-1.196	-1.2	-1.196	-1.196	–	-0.4917	-3.13	2.0933	124	–	2.0933	1427	-1.196	-3.133	2.0933	–	-1.2
